Measurements taken from patent publication US20150140002A1, “USE OF A PCSK9 INHIBITOR TO TREAT […]” (Sanofi, priority 2013, published 2015).
Values joined by “and” are separate entries in the source; they are usually repeats but may differ in a detail not shown here. Equal entries are not always repeated.

What was measured:
[1] = tested on: patients with hypercholesterolemia at moderate cardiovascular (CV) risk; assay: Example 2: safety (TEAEs, laboratory parameters, vital signs)
Text: The clinical laboratory data consisted of urinalysis and blood analysis, hematology (RBC count, red blood cell distribution width (RDW), reticulocyte count, hemoglobin, hematocrit, platelets, WBC count with differential blood count), standard chemistry (glucose, sodium, potassium, chloride, bicarbonate, calcium, phosphorous, urea nitrogen, creatinine, uric acid, total protein, LDH, albumin, γ Glutamyl Transferase [γGT]), Hepatitis C antibody, liver panel (ALT, AST, ALP, and total bilirubin), and CPK.
Safety endpoints—Vital signs measurement: Vital signs included: HR, systolic and diastolic BP in sitting position.
The safety analysis included all randomized and treated patients. Safety data were analyzed by descriptive statistics.

[2] = tested on: patients with hypercholesterolemia at moderate cardiovascular (CV) risk; assay: Example 2: Phase 3 monotherapy trial mAb316P versus ezetimibe, lipid parameters; format: in vivo, human; conditions: for Lp(a) adjusted mean (SE) % change from baseline to week 24 / TGs adjusted mean (SE) % change from baseline to week 24: combined estimate; for LDL-C (on treatment), mean (SD): ezetimibe arm (n = 51); for LDL-C LS mean (SE) change from baseline (%): baseline to Week 24
Text: Randomization was stratified according to DM status. […] Patients were followed for 8 weeks after the last visit of the Double Blind Treatment Period (DBTP).
Double-blind treatment period (DBTP)—A randomized, double-blind double dummy study treatment period of 24 weeks. The first injection during the double-blind period was done at the site on the day of randomization (Week 0 [D1]-V3) and as soon as possible after the call to IVRS/IWRS for randomization into the study. The subsequent injections were done by the patient (self-injection) or another designated person (such as spouse, relative, etc.) at a patient-preferred location (home, etc.).
The primary efficacy endpoint was the percent change in calculated LDL-C from baseline to week 24, which is defined as: 100×(calculated LDL-C value at Week 24−calculated LDL-C value at baseline)/calculated LDL-C value at baseline.
Total-C, HDL-C, TG, Apo B, Apo A-1, and Lp (a) were directly measured. LDL-C was calculated using the Friedewald formula at all visits (except Week −1 and Follow Up visit). If TG values exceeded 400 mg/dL (4.52 mmol/L) then the central lab reflexively measured (via the beta quantification method) the LDL-C rather than calculating it. Non-HDL-C was calculated by subtracting HDL-C from the total-C. Ratio Apo B/Apo A-1 was calculated.
The primary endpoint was assessed in the intent-to-treat (ITT) population, which included all randomized patients who had at least 1 calculated LDL-C value at baseline and at one of the planned time points from weeks 4 to 24.
Missing data were accounted for by means of a mixed effect model with repeated measures (MMRM) approach (Siddiqui et al., MMRM vs. LOCF: a comprehensive comparison based on simulation study and 25 NDA datasets”, J Biopharm Stat, vol. 19, pp. 227-246 (2009); National Research Council, “The Prevention and Treatment of Missing Data in Clinical Trials” Panel on Handling Missing Data in Clinical Trials. Committee on National Statistics, Division of Behavioral and Social Sciences and Education. 2010. Washington, D.C.: The National Academies Press; Andersen et al., “On the practical application of mixed effects models for repeated measures to clinical trial data”, Pharm Stat., vol. 12, pp. 7-16 (2013)). For the ITT analysis, all available measurements at planned time points from weeks 4 to 24 (meaning week 4, 8, 12, 16, and 24), whatever their status on or off-treatment, were used in the MMRM. One MMRM model was used for LDL-C to provide least-squares means estimates and comparison between treatment arms at weeks 24 and 12. Further details on the model are given below. For the on-treatment analysis, all available on-treatment measurements (i.e. up to 21 days after last injection/3 days after last capsule, whichever comes first) at planned time points from weeks 4 to 24 were used in the MMRM model. In the same way as for the ITT analysis, one model was used to provide estimates and comparison at week 24 and week 12 for the on-treatment analysis. Continuous key secondary endpoints other than Lp(a) and triglycerides were analyzed in a similar fashion as the primary endpoint and description of the statistical methodology for secondary endpoints and subgroup analysis is provided below.
Outputs from the model were the baseline-adjusted least-squares (LS) mean estimates at week 24 for both treatment groups with their corresponding standard error (SE). Appropriate contrast statement was used to test the difference between these estimates at the 2-sided 5% alpha level.
To analyze the key secondary endpoints, a hierarchical procedure was used to control type I error and handle multiplicity. Secondary efficacy endpoints were tested sequentially using the order given above, in the intent-to-treat population.

## O=C1[C@H](CC[C@H](O)c2ccc(F)cc2)[C@@H](c2ccc(O)cc2)N1c1ccc(F)cc1 [ezetimibe, reference compound]
[1]; Laboratory parameters
  Alanine aminotransferase (ALT) ≧3× ULN: 0/51
  Alanine aminotransferase (ALT) ≧3× ULN (if baseline ALT <ULN) or ≧2× the baseline value (if baseline ALT ≧ULN): 0/51
  Albumin ≦25 g/L: 0/50
  Aspartate aminotransferase >3× ULN: 0/51
  Glucose ≦70 mg/dL (3.9 mmol/L) and <LLN: 0/50
[1]; Safety Population
  Patients with any TEAE: 40 (78.4) n (%)
  Patients with any TEAE leading to death: 0 n (%)
  Patients with any TEAE leading to treatment discontinuation: 4 (7.8) n (%)
  Patients with any treatment emergent SAE: 1 (2.0) n (%)
[1]; TEAE
  Arthralgia: 2 (3.9) n (%)
  Diarrhea: 2 (3.9) n (%)
  Dizziness: 3 (5.9) n (%)
  Headaches: 2 (3.9) n (%)
  Nasopharyngitis: 8 (15.7) n (%)
  Nausea: 3 (5.9) n (%)
  Upper respiratory tract infection: 5 (9.8) n (%)
  Urinary tract infection: 3 (5.9) n (%)
  back pain: 3 (5.9) n (%)
[1]; TEAEs of interest
  General disorders and administration site conditions: 5 (9.8) n (%)
  Injection site reaction: 2 (3.9) n (%)
  Muscle disorders: 2 (3.9) n (%)
  Musculoskeletal and connective tissue disorders: 11 (21.6) n (%)
  Musculoskeletal and connective tissue disorders NEC: 5 (9.8) n (%)
  Musculoskeletal pain: 1 (2.0) n (%)
  Myalgia: 1 (2.0) n (%)
  muscle spasms: 1 (2.0) n (%)
[1]; discussion
  Muscle-related AEs: 4%
[1]; disposable autoinjector
  injection related AEs: < 4%
[1]; in vivo
  Muscle-related TEAEs: 2 (4%) patients (%)
  overall percentage of patients who experienced at least one TEAE: 78%
  patients with abnormalities in vital signs (blood pressure, heart rate): ≤ 2 patients
  patients with blood glucose >126 mg/dL (7 mmol/L): 1 patients
  patients with elevated creatine kinase levels over 10 times the upper limit of normal: 1 patient
[1]; mostly respiratory
  TEAE class infection: 39.2%
[2]; ITT
  Apo A-1 LS mean (SE) % change from baseline to week 24: −0.6 (1.6) %
  Apo B LS mean (SE) % change from baseline to week 24: −11.0 (2.4) %
  HDL-C LS mean (SE) % change from baseline to week 24: 1.6 (1.9) %
  Non-HDL-C LS mean (SE) % change from baseline to week 24: −15.1 (2.9) %
  Total cholesterol LS mean (SE) % change from baseline to week 24: −10.9 (2.2) %
  Lp(a) adjusted mean (SE) % change from baseline to week 24: −12.3 (3.8) %
  TGs adjusted mean (SE) % change from baseline to week 24: −10.8 (4.3) %
  LDL-C LS mean (SE) change from baseline (%): −15.6%
[2]; ITT, excluding post up-titration data from patients up-titrated having LDL-C <100 mg/dL
  LDL-C LS mean (SE) Week 24 change from baseline (%): −15.6%
[2]; ITT, given as reduction
  LS mean (SE) percent reductions in LDL-C from baseline to week 24: 16 (3) %
[2]; ITT, mAb316P 75 mg Q2W before up-titration, ezetimibe 10 mg daily
  LDL-C reduction at week 12: 20 (3) % and 20%
[2]; On-treatment
  Apo A-1 LS mean (SE) % change from baseline to week 24: −0.7 (1.6) %
  Apo B LS mean (SE) % change from baseline to week 24: −11.5 (1.9) %
  HDL-C LS mean (SE) % change from baseline to week 24: 1.7 (1.9) %
  Non-HDL-C LS mean (SE) % change from baseline to week 24: −16.6 (1.9) %
  Total cholesterol LS mean (SE) % change from baseline to week 24: −12.0 (1.6) %
  Lp(a) adjusted mean (SE) % change from baseline to week 24: −12.3 (4.0) %
  TGs adjusted mean (SE) % change from baseline to week 24: −12.7 (4.2) %
  LDL-C LS mean (SE) change from baseline (%): −17.2%
[2]; Week 4
  LDL-C (on treatment), mean (SD): 109.9 (22.4) mg/dL
[2]; Week 12
  LDL-C (on treatment), mean (SD): 109.8 (25.2) mg/dL
[2]; Week 24
  LDL-C (on treatment), mean (SD): 113.4 (25.0) mg/dL
[2]; before up-titration, ITT
  estimated proportions of patients with LDL-C reductions ≧50% at week 12: 3%
[2]; before up-titration, on-treatment analysis
  proportions of patients with LDL-C reductions ≧50% at week 12: 2%
[2]; current study, discussion
  reduction in Lp(a): 12%
[2]; on-treatment analysis, given as reduction
  LS mean (SE) LDL-C reductions from baseline to week 24: 17 (2) %
[2]; on-treatment analysis, mAb316P 75 mg Q2W
  LDL-C reduction at week 12: 20 (2) % and 20%
[2]; summary, mAb316P 75mg Q2W arm, monotherapy population
  reduction in LDL-C at 12 weeks: 20%
